Converted amounts (≈) assume the structure as drawn. Read-outs that look alike come from different tables or passages of the source.

The record followed here is patent US20080096894A1, “Anti-Bacterial Compounds” (ASTON UNIVERSITY, priority 2005, published 2008).

In one data set the test system is MRSA. The experiment in a line: MIC, agar dilution, multipoint inoculator. Type of data set: cell-based, methicillin-resistant Staphylococcus aureus. The following applies: Staphylococcus aureus. A digest of the protocol: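 Agar dilution MIC on Mueller Hinton agar, multipoint inoculator delivering 10^4 colony forming units per spot. MRSA values are ranges across ten clinical MRSA strains; S. aureus NCTC 6571 as reference strain.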
A general note: Agar dilution tests growth on a series of plates holding different concentrations.

The subject of a further data set is E. faecium. The data set is described as follows: MIC, agar dilution, multipoint inoculator. Type of data set: cell-based, Enterococcus faecium. The following applies: Enterococcus faecium, upper value of MIC reading, read-out: MIC. A digest of the protocol: (§1)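 Agar dilution on Mueller Hinton agar; a multipoint inoculator delivered 10^4 colony forming units per spot, and the MIC was taken for each compound.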

The next data set deals with E. faecalis. The data set is described as follows: MIC, agar dilution, multipoint inoculator. Type of data set: cell-based. The following applies: Enterococcus faecalis, upper value of MIC reading, read-out: MIC. A digest of the protocol:
as §1

In another data set the test system is S. haemolyticus. The data set is described as follows: MIC, agar dilution, multipoint inoculator. Type of data set: cell-based. To be noted: Staphylococcus haemolyticus, 18 h; S. haemolyticus Isolate 1; upper value of MIC reading; read-out: MIC. A digest of the protocol: as §1
In data set [1] the test system is vancomycin resistant enterococci. The experiment in a line: MIC, agar dilution, multipoint inoculator. Type of data set: cell-based. To be noted: one value printed for the seven vancomycin resistant enterococci cultures of Table 5; read-out: MIC. Here is the method: (§2) This activity was measured using a multipoint inoculator method as follows. The MIC for each compound was measured using an agar dilution method (Onda, H., et al., Int. J. Antimicrob. Agents. 18, 263 (2001)) (Mueller Hinton agar) by means of a multipoint inoculator delivering 10^4 colony forming units per spot.
It will be noted that compound 4PYcq was active against all strains of MRSA as well as all other Gram positive bacteria. For this reason it was further tested against some vancomycin resistant enterococci, using the multipoint inoculator method described above. It can be seen from Table 5 that the high level activity was retained.

Data set [2] has as its system Bacillus megarerium. The experiment in a line: MIC, agar dilution, multipoint inoculator. Type of data set: cell-based. As to the method: as §2
4Pycq was also tested against the following bacteria, using the multipoint inoculator method.

Data set [3] has as its system human mononuclear leucocytes (MNL, white blood cells). The data set is described as follows: direct leucocyte toxicity, tryptan blue exclusion, 18 hours. Type of data set: cell-based. Here is the method:
The in vitro assay used human mononuclear leucocytes (MNL, white blood cells) which were incubated with the test compound for 18 hours and cell death determined by tryptan blue exclusion (tryptan blue is a dye, which stains dead cells, whilst living cells extrude it).
The toxicity of 4PYcq and the aldehyde cq and pyridine-4-carboxamidrazone precursors were assessed using the same in vitro assay with human mononuclear leucocytes as that described above. The toxicity of related compounds, 2-hydroxybenzylidene-pyridine-2-carboxamidrazone 4PYbw and benzylidenepyridine-2-carboxamidrazone 4PYaa were also examined.

A further data set relates to Bacillus cereus. The data set is described as follows: MIC, doubling dilution in 96-well microtitre plate. Type of data set: cell-based. A digest of the protocol:
(§3)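 Each well received […] of medium carrying 10^6 cfu/mL of the test organism, and plates were incubated overnight at 37° C. Growth appeared as a small button seen from beneath the plate; MIC was taken as the lowest concentration inhibiting growth.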

Data set [4] deals with Bacillus megarerium. The experiment in a line: MIC, doubling dilution in 96-well microtitre plate. Type of data set: cell-based. A digest of the protocol:
as §3

For the next data set, the system named is Bacillus subtilis. The experiment in a line: MIC, doubling dilution in 96-well microtitre plate. Type of data set: cell-based. A digest of the protocol:
as §3

Data set [5] has as its system Citrobacter diversus 2046E. The experiment in a line: MIC, doubling dilution in 96-well microtitre plate. Type of data set: cell-based. A digest of the protocol: as §3
The test system of a further data set is Citrobacter freundii. The experiment in a line: MIC, doubling dilution in 96-well microtitre plate. Type of data set: cell-based. A digest of the protocol: as §3
The subject of data set [6] is Enterobacter cloacae ATCC 13047. The data set is described as follows: MIC, doubling dilution in 96-well microtitre plate. Type of data set: cell-based. A digest of the protocol: as §3
Data set [7] relates to Enterococcus faecalis NCTC 5957. The experiment in a line: MIC, doubling dilution in 96-well microtitre plate. Type of data set: cell-based. A digest of the protocol:
as §3

For the next data set, the system named is Enterococcus faecium. The data set is described as follows: MIC, doubling dilution in 96-well microtitre plate. Type of data set: cell-based. The following applies: Enterococcus faecium ATCC 10541. A digest of the protocol:
as §3

For data set [8], the system named is Escherichia coli olli-blue. The experiment in a line: MIC, doubling dilution in 96-well microtitre plate. Type of data set: cell-based. A digest of the protocol: as §3
The subject of a further data set is Hafnia alvei. The experiment in a line: MIC, doubling dilution in 96-well microtitre plate. Type of data set: cell-based. A digest of the protocol:
as §3

Data set [9] relates to Klebsiella pneumoniae ATCC 33495. The data set is described as follows: MIC, doubling dilution in 96-well microtitre plate. Type of data set: cell-based. A digest of the protocol: as §3
The subject of a further data set is Micrococcus luteus. The experiment in a line: MIC, doubling dilution in 96-well microtitre plate. Type of data set: cell-based. A digest of the protocol:
as §3

The next data set has as its system Micrococcus roseus. The data set is described as follows: MIC, doubling dilution in 96-well microtitre plate. Type of data set: cell-based. A digest of the protocol: as §3
In the next data set the test system is Moraxella catarrhalis. The experiment in a line: MIC, doubling dilution in 96-well microtitre plate. Type of data set: cell-based. A digest of the protocol: as §3
The test system of data set [10] is Pseudomonas aeruginosa ATCC 15692 (PA01). The data set is described as follows: MIC, doubling dilution in 96-well microtitre plate. Type of data set: cell-based. A digest of the protocol:
as §3

For another data set, the system named is Salmonella Cambridge. The data set is described as follows: MIC, doubling dilution in 96-well microtitre plate. Type of data set: cell-based. A digest of the protocol: as §3
The next data set relates to Salmonella arizonae. The experiment in a line: MIC, doubling dilution in 96-well microtitre plate. Type of data set: cell-based. A digest of the protocol: as §3
The test system of the next data set is Salmonella banana. The data set is described as follows: MIC, doubling dilution in 96-well microtitre plate. Type of data set: cell-based. A digest of the protocol: as §3
The next data set concerns Salmonella enteriditis. The data set is described as follows: MIC, doubling dilution in 96-well microtitre plate. Type of data set: cell-based. A digest of the protocol: as §3
Data set [11] relates to Staphylococcus aureus (MRSA) 96-7475. The data set is described as follows: MIC, doubling dilution in 96-well microtitre plate. Type of data set: cell-based. A digest of the protocol: as §3
Data set [12] deals with Staphylococcus aureus NCTC 6571. The data set is described as follows: MIC, doubling dilution in 96-well microtitre plate. Type of data set: cell-based. A digest of the protocol: as §3
The subject of data set [13] is Staphylococcus aureus W11 MRSA. The experiment in a line: MIC, doubling dilution in 96-well microtitre plate. Type of data set: cell-based. A digest of the protocol: as §3
Data set [14] deals with Staphylococcus epidermidis NCTC 11047. The data set is described as follows: MIC, doubling dilution in 96-well microtitre plate. Type of data set: cell-based. A digest of the protocol:
as §3

In data set [15] the test system is Streptococcus bovis NCTC 11436. The data set is described as follows: MIC, doubling dilution in 96-well microtitre plate. Type of data set: cell-based. A digest of the protocol:
as §3

In general, MIC refers to the lowest concentration that inhibits growth of the organism. Turning to `CC(C)(C)c1cc(/C=N/N=C(\N)c2ccncc2)c(O)c(C(C)(C)C)c1` [Compound 4PYcq], the MIC in the data set with MRSA (18 h, MRSA Isolate 1, upper value of MIC reading, read-out: MIC) came out at 4 µg/mL (≈ 11.3 µM); in the data set with MRSA (18 h, MRSA Isolate 2, upper value of MIC reading, read-out: MIC), 4 µg/mL (≈ 11.3 µM); with MRSA (18 h, MRSA Isolate 3, upper value of MIC reading, read-out: MIC), 4 µg/mL (≈ 11.3 µM); in the data set on MRSA (18 h, MRSA Isolate 4, upper value of MIC reading, read-out: MIC), 4 µg/mL (≈ 11.3 µM); in the data set with MRSA (18 h, MRSA Isolate 5, upper value of MIC reading, read-out: MIC), 4 µg/mL (≈ 11.3 µM); with MRSA (18 h, MRSA Isolate 6, upper value of MIC reading, read-out: MIC), 4 µg/mL (≈ 11.3 µM). Further, the minimum inhibitory concentration (MIC) in the data set on MRSA (18 h, MRSA Isolate 7, upper value of MIC reading, read-out: MIC) is 4 µg/mL (≈ 11.3 µM); in the data set with MRSA (18 h, MRSA Isolate 8, upper value of MIC reading, read-out: MIC), 4 µg/mL (≈ 11.3 µM); with MRSA (18 h, MRSA Isolate 9, upper value of MIC reading, read-out: MIC), 4 µg/mL (≈ 11.3 µM); with MRSA (18 h, MRSA Isolate 10, upper value of MIC reading, read-out: MIC), 4 µg/mL (≈ 11.3 µM); in the data set with MRSA (MRSA, 18 h, panel of ten MRSA strains (clinical isolates), read-out: MRSA MIC range), 2 to 4 µg/mL (≈ 5.67 to 11.3 µM); with MRSA (MRSA, the MRSA strains which were tested, read-out: MIC), 2 to 4 µg/mL (≈ 5.67 to 11.3 µM). For the same compound, the MIC in the data set on E. faecium (18 h, E. faecium ACTCC 10541) worked out at 4 µg/mL (≈ 11.3 µM); in the data set with E. faecium (NCTC7171, 18 h, E. faecium NCTC 7171) it was 4 µg/mL (≈ 11.3 µM); with E. faecalis (18 h, E. faecalis EBH1), 4 µg/mL (≈ 11.3 µM); in the data set with E. faecalis (18 h, E. faecalis Isolate 1) it was 4 µg/mL (≈ 11.3 µM); in the data set on E. faecalis (18 h, E. faecalis Isolate 2), 4 µg/mL (≈ 11.3 µM); in the data set with E. faecalis (18 h, E. faecalis Isolate 4), 4 µg/mL (≈ 11.3 µM). For the same compound, the MIC is 4 µg/mL (≈ 11.3 µM) in the data set with E. faecalis (18 h, E. faecalis Isolate 5); 4 µg/mL (≈ 11.3 µM) in the data set on E. faecalis (NCTC5957, 18 h, E. faecalis NCTC 5957); 4 µg/mL (≈ 11.3 µM) in the data set with S. haemolyticus; 2 to 4 µg/mL (≈ 5.67 to 11.3 µM) in data set [1]; 0.5 to 1 µg/mL (≈ 1.42 to 2.84 µM) in the data set with Bacillus megarerium [2]. Further, in data set [3], the “direct MNL toxicity (in words)” value was “very toxic to leucocytes”.

With `NC(=NN=Cc1ccc([N+](=O)[O-])o1)c1cc[n+]([O-])cc1` (mixture of isomers) [Compound 4PYOfi], the MIC against Bacillus cereus lay within 8 to 16 µg/mL; in the data set with Bacillus megarerium [4] it was 8 to 16 µg/mL; against Bacillus subtilis, 8 to 16 µg/mL; in data set [5] it was 32 to 64 µg/mL; against Citrobacter freundii, 32 to 64 µg/mL; in data set [6], 32 to 64 µg/mL. In addition, the MIC lay in the range of 4 to 8 µg/mL in data set [7]; 8 to 16 µg/mL against Enterococcus faecium; 16 to 32 µg/mL in data set [8]; 32 to 64 µg/mL in the data set on Hafnia alvei; 32 to 64 µg/mL in [9]; 8 to 16 µg/mL against Micrococcus luteus. Also, the MIC in the data set on Micrococcus roseus is 8 to 16 µg/mL; with Moraxella catarrhalis, 16 to 32 µg/mL; in data set [10] it was 32 to 64 µg/mL; with Salmonella Cambridge, 16 to 32 µg/mL; against Salmonella arizonae, 16 to 32 µg/mL; against Salmonella banana, 4 to 8 µg/mL. Moreover, the MIC was in the range of 32 to 64 µg/mL with Salmonella enteriditis; 4 to 8 µg/mL in [11]; 4 to 8 µg/mL in data set [12]; 4 to 8 µg/mL in data set [13]; 2 to 4 µg/mL in [14]; 4 to 8 µg/mL in data set [15].
